Measurements taken from paper PMC8343220, “The selectivity of α‐adrenoceptor agonists for the human α1A, α1B, and α1D‐adrenoceptors” (Pharmacology Research & Perspectives, 2021).
Where two headings read alike, the source gives them in different places.

Legend:
[1] = target: T1, human α1D‐adrenoceptor (full length) (Homo sapiens, UniProt P25100); assay: Intracellular free calcium mobilization, CHO‐α1D cells; format: cell-based
T1 construct: human α1D‐adrenoceptor (full length) were used; expressed in transfected cells; host or cells: CHO-K1
T1 sequence (P25100 1-572): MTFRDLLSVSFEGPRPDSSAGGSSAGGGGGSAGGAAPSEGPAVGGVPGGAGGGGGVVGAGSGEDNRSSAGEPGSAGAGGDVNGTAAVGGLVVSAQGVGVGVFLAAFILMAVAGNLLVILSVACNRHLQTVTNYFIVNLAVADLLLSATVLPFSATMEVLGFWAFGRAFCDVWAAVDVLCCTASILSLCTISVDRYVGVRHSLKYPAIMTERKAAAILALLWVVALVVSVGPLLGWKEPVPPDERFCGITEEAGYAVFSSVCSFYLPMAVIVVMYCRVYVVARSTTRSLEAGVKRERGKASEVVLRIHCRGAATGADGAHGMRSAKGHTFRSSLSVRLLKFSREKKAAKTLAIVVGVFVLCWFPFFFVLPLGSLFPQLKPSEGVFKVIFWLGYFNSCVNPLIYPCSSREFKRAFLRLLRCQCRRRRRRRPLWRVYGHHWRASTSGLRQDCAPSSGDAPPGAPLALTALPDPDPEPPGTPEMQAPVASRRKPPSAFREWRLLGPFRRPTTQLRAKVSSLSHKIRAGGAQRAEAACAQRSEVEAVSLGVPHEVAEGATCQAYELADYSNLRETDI

[2] = target: T1, human α1D‐adrenoceptor (full length); assay: ERK1/2‐phosphorylation (Surefire Alphascreen), CHO‐α1D cells; format: cell-based
[3] = target: T1, human α1D‐adrenoceptor (full length); conditions: CHO‐α1D cells; ligands marked ^a; ref Proudman et al., 2020; cited from earlier work
[4] = tested on: parental CHO cell line without any transfected receptors; assay: ERK1/2‐phosphorylation, parent CHO cells without transfected receptors; format: cell-based, Chinese hamster
[5] = tested on: parental CHO cell line without any transfected receptors; assay: Intracellular calcium mobilization, parent CHO cells without transfected receptors; format: cell-based, Chinese hamster
human α1A‐adrenoceptor [6] = target: T2, human α1A‐adrenoceptor (Homo sapiens, UniProt P35348); assay: Intracellular free calcium mobilization, CHO‐α1A cells; format: cell-based
T2 construct: expressed in transfected cells; host or cells: CHO-K1
T2 sequence (P35348 1-466): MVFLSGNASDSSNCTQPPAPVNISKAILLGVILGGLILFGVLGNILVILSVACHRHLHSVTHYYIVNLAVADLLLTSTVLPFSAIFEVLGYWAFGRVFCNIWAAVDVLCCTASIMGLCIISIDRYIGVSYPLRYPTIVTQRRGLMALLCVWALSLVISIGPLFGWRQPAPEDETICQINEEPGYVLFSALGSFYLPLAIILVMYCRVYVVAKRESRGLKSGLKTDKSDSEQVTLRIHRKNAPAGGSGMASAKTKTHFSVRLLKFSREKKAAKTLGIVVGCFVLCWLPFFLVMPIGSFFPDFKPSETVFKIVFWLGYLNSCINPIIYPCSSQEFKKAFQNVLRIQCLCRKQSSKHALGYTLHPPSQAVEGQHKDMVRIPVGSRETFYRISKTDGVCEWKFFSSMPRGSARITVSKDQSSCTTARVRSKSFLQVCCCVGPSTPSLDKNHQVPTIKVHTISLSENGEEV

human α1A‐adrenoceptor [7] = target: T2, human α1A‐adrenoceptor; assay: ^3H‐prazosin whole‐cell radioligand binding, CHO‐α1A cells
human α1B‐adrenoceptor [8] = target: T3, human α1B‐adrenoceptor (Homo sapiens, UniProt P35368); assay: ERK1/2‐phosphorylation (Surefire Alphascreen), CHO‐α1B cells; format: cell-based
T3 construct: expressed in transfected cells; host or cells: CHO-K1
T3 sequence (P35368 1-520): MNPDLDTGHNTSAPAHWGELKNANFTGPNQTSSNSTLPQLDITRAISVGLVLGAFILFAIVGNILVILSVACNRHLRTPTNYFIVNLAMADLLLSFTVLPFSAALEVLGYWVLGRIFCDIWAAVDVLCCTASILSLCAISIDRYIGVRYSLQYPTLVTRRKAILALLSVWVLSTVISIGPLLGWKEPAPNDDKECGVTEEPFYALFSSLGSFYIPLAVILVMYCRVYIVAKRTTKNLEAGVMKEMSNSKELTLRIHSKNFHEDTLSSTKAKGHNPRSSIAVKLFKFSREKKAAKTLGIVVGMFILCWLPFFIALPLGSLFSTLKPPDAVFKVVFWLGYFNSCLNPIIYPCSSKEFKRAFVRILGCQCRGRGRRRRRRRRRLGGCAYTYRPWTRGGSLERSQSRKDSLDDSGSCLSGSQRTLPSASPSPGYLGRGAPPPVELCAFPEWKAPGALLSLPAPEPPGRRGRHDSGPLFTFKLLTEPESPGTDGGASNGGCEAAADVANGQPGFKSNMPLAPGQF

human α1B‐adrenoceptor [9] = target: T3, human α1B‐adrenoceptor; assay: Intracellular free calcium mobilization, CHO‐α1B cells; format: cell-based
human α1A‐adrenoceptor [10] = target: T2, human α1A‐adrenoceptor; conditions: CHO‐α1A cells; given as log KD (negative); ligands marked ^a; ref Proudman et al., 2020; cited from earlier work
human α1B‐adrenoceptor [11] = target: T3, human α1B‐adrenoceptor; conditions: CHO‐α1B cells; given as log KD (negative); ligands marked ^a; ref Proudman et al., 2020; cited from earlier work
[12] = target: T1, human α1D‐adrenoceptor (full length); assay: ^3H‐prazosin whole‐cell radioligand binding, CHO‐α1D cells
human α1A‐adrenoceptor [13] = target: T2, human α1A‐adrenoceptor; assay: ERK1/2‐phosphorylation (Surefire Alphascreen), CHO‐α1A cells; format: cell-based
[14] = tested on: parental CHO cell line without any transfected receptors; assay: Forskolin‐stimulated cAMP accumulation, parent CHO cells without transfected receptors; format: cell-based, Chinese hamster
[15] = tested on: parental CHO cell line without any transfected receptors; assay: ^3H‐cAMP accumulation, parent CHO cells without transfected receptors; format: cell-based, Chinese hamster
human α1A‐adrenoceptor [16] = target: T2, human α1A‐adrenoceptor; assay: ^3H‐cAMP accumulation in the presence of 10 μM forskolin, CHO‐α1A cells; format: cell-based; conditions: CHO‐α1A cells; for cAMP accumulation (in presence of forskolin) Log EC50: 10 μM forskolin; for cAMP accumulation (in presence of forskolin) Fold increase: fold increase of the forskolin response
human α1A‐adrenoceptor [17] = target: T2, human α1A‐adrenoceptor; assay: ^3H‐cAMP accumulation, CHO‐α1A cells; format: cell-based; conditions: CHO‐α1A cells; for cAMP accumulation Log EC50: 5 h; for cAMP accumulation % forskolin: % of 10 µM forskolin response
[18] = CHO‐α1D cells, response at 100 µM ligand (no EC50 given)

Row | Compound | Intracellular calcium release % Ionomycin at 100 µM [1] [%] | ERK1/2‐phosphorylation % PDBu at 100 µM [2] [%] | Log KD α1D, ^3H‐prazosin whole cell binding (single site or first, higher affinity component) [3] | Intracellular calcium release % ionomycin [5] | Intracellular calcium release % ionomycin (human α1A‐adrenoceptor [6]) [%] | Intracellular calcium release Log EC50 (human α1A‐adrenoceptor [6]) | Log efficacy ratio KD /EC50 (human α1A‐adrenoceptor [6]) | Affinity selectivity ratio α1A vs α1B (human α1A‐adrenoceptor [7]) [fold] | Affinity selectivity ratio α1A vs α1D (human α1A‐adrenoceptor [7]) [fold] | Log KD α1A, ^3H‐prazosin whole cell binding (human α1A‐adrenoceptor [10]) | Log KD α1B, ^3H‐prazosin whole cell binding (human α1B‐adrenoceptor [11]) | 3H‐prazosin binding Log KD [12] | Affinity selectivity ratio α1B vs α1D [12] [fold] | ERK1/2‐phosphorylation % PDBu (human α1A‐adrenoceptor [13]) [%] | ERK1/2‐phosphorylation Log EC50 (human α1A‐adrenoceptor [13]) | cAMP accumulation (in presence of forskolin) Log EC50 (human α1A‐adrenoceptor [16]) | cAMP accumulation (in presence of forskolin) Fold increase (human α1A‐adrenoceptor [16]) [fold] | cAMP accumulation Log EC50 (human α1A‐adrenoceptor [17]) | cAMP accumulation % forskolin (human α1A‐adrenoceptor [17]) [%] | further results
1 | O=C1CCC(=O)N1C[C@H]1CC[C@H]2CN(c3ncccn3)CCN2C1 [Sunepitrion] | 2.5 ± 0.5 | 2.4 ± 1.1 | −5.33 ± 0.23 | No response | 30.1 ± 3.0 | −6.17 ± 0.14 | 0.39 | 13.5 | 2.8 | −5.78 ± 0.06 | −4.65 ± 0.06 | −5.33 | 4.8 | 39.7 ± 8.4 | −5.96 ± 0.12 |  |  |  |  | ERK1/2-phosphorylation % PDBu at 100μM [4]: 4.1 ± 2.7%; ERK1/2‐phosphorylation % PDBu (human α1B‐adrenoceptor [8]): 7.8 ± 2.8%; Intracellular calcium release % Ionomycin at 100 µM (human α1B‐adrenoceptor [9]): 8.2 ± 1.3%
2 | CCC1(C2=NCCN2)Cc2ccccc2O1 (stereo not drawn) [Eforaxan] | 2.8 ± 0.8 | 2.7 ± 1.5 | −4.97 ± 0.06 | No response | 45.0 ± 2.6 | −6.83 ± 0.10 | 1.36 | 15.8 | 3.2 | −5.47 ± 0.03 | −4.27 ± 0.07 | −4.97 | 5.0 | 76.4 ± 5.2 | −6.12 ± 0.07 | −5.93 ± 0.13 | 1.47 ± 0.13 | −5.47 ± 0.10 | 4.0 ± 0.6 | ERK1/2-phosphorylation % PDBu [4]: No response; ERK1/2-phosphorylation Log EC50 [4]: No response; cAMP accumulation (in presence of forskolin) % forskolin-stim cAMP [14]: No response; cAMP accumulation (in presence of forskolin) Log EC50 [14]: No response; cAMP accumulation % forskolin [15]: No response; ERK1/2‐phosphorylation % PDBu at 100 µM (human α1B‐adrenoceptor [8]): 11.9 ± 2.4%; Intracellular calcium release % ionomycin (human α1B‐adrenoceptor [9]): No response; Intracellular calcium release Log EC50 (human α1B‐adrenoceptor [9]): No response
3 | CC1c2ccccc2CN1CC1=NCCN1 (stereo not drawn) [BRL44408] |  |  | −5.06 ± 0.05 |  |  |  |  |  |  | −5.92 ± 0.09 | −4.68 ± 0.07 |  |  |  |  | −6.43 ± 0.09 | 1.62 ± 0.08 | −6.27 ± 0.17 | 4.7 ± 0.5 | Intracellular calcium release % Ionomycin at 100 µM [1, 18]: 4.5 ± 2.1%; ERK1/2‐phosphorylation % PDBu at 100 µM [2, 18]: 47.4 ± 5.7%; ERK1/2-phosphorylation % PDBu at 100μM ([4]; CHO cells without transfected receptors, response at 100μM only, EC50 not obtainable, % of PDBu (10μM)): 17.6 ± 8.1%; cAMP accumulation (in presence of forskolin) % forskolin-stim cAMP at 100μM ([14]; CHO cells without transfected receptors, response at 100μM only, EC50 not obtainable, % of forskolin-stimulated cAMP): 77.6 ± 2.3%; Log efficacy ratio KD /EC50 (human α1A‐adrenoceptor [6]; CHO‐α1A cells, binding KD and calcium EC50): 1.32; Intracellular calcium release Log EC50 (human α1A‐adrenoceptor [6]; CHO‐α1A cells, given as log EC50 (negative)): −7.24 ± 0.10; Intracellular calcium release % ionomycin (human α1A‐adrenoceptor [6]; CHO‐α1A cells, maximal response as % of 10 µM ionomycin): 36.5 ± 5.4%; Affinity selectivity ratio α1A vs α1B (human α1A‐adrenoceptor [7]; higher affinity for α1A than α1B): 17.4 fold; ERK1/2‐phosphorylation % PDBu at 100 µM (human α1B‐adrenoceptor [8]; CHO‐α1B cells, response at 100 µM ligand (no EC50 given)): 47.0 ± 7.0%; Intracellular calcium release % Ionomycin at 100 µM (human α1B‐adrenoceptor [9]; CHO‐α1B cells, response at 100 µM ligand (no EC50 given), % of ionomycin response): 13.7 ± 6.5%; 3H‐prazosin binding Log KD ([12]; CHO‐α1D cells, whole‐cell binding (from Table 1), log values given negative): −5.06; Affinity selectivity ratio α1B vs α1D ([12]; higher affinity for α1D than α1B): 2.4 fold; ERK1/2‐phosphorylation Log EC50 (human α1A‐adrenoceptor [13]; CHO‐α1A cells, 2–4 min, ^a bi‐phasic: initial stimulatory part, ^b also active in parent CHO cells): −7.03 ± 0.14; ERK1/2‐phosphorylation % PDBu (human α1A‐adrenoceptor [13]; CHO‐α1A cells, % of 10 µM PDBu, ^a bi‐phasic: initial stimulatory part): 77.4 ± 4.1%
